According to BindingDB's records for doi:10.1021/jm050113z (University of North Carolina at Chapel Hill, 2005):

Biological target: T1, Protein RecA (Escherichia coli (strain K12), UniProt P0A7G6)
T1 sequence (P0A7G6 whole entry): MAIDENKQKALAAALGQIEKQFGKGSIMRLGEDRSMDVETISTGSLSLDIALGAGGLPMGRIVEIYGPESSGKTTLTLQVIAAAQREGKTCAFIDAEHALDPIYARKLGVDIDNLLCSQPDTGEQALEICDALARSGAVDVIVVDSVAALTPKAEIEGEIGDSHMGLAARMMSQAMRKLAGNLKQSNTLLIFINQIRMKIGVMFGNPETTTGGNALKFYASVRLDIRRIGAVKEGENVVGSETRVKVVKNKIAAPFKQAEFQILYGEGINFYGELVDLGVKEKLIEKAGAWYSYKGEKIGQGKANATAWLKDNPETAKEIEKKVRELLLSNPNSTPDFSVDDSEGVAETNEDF
Experiment: In vitro apparent inhibition constant against Escherichia coli RecA protein

Ki: 46 µM
SMILES: O=P(O)(O)OP(=O)(O)OC[C@H]1O[C@@H](n2cnc3c(Nc4cccc5ccccc45)ncnc32)[C@H](O)[C@@H]1O
